Test results as given in patent US7294635B2 (Portola Pharmaceuticals, Inc., priority 2003, dated 2007).

Tested on: ADP-induced human platelet aggregation
Test: Inhibition of ADP-mediated platelet aggregation in vitro using platelet-rich plasma (PRP assay)
Assay type: cell-based
Conditions: 5 min; human platelet-rich plasma, 2 μM ADP, 96-well microtiter, OD 650 nm at 5 min; read-out: Activity in the PRP assay
Description: This Example Provides an Assay for the Inhibition of ADP-Mediated Platelet Aggregation In Vitro Using Platelet-Rich Plasma (PRP)
Platelet-rich plasma (PRP) is prepared by centrifugation at 160×g for 20 minutes at room temperature. PRP is collected, and the platelet concentration is determined using a Coulter counter or hemocytometer (platelet concentration should be 2-4×10^8 platelets per mL).
Inhibition of ADP-dependent aggregation is preferably determined in 96-well flat-bottom microtiter plates using a microtiter plate shaker and plate reader similar to the procedure described by Frantantoni et al., Am. J. Clin. Pathol. […] All steps are performed at room temperature. The total reaction volume of 0.2 mL/well includes: PRP (˜6×10^7 total platelets in the presence of plasma), serial dilutions of test compounds (buffer for control wells) in 0.6% DMSO. After about 5 minutes preincubation at room temperature, ADP is added to a final concentration of 2 μM which induces submaximal aggregation. Buffer is added instead of ADP to one set of control wells (ADP-control). The OD of the samples is then determined at 650 nm using a microtiter plate reader (Softmax, Molecular Devices, Menlo Park, Calif.) resulting in the 0 minute reading. The plates are then agitated for 5 min on a microtiter plate shaker and the 5 minute reading is obtained in the plate reader. Aggregation is calculated from the decrease of OD at 650 nm at t=5 minutes compared to t=0 minutes and is expressed as % of the decrease in the ADP control samples after correcting for changes in the unaggregated control samples.

SMILES	IC50 [µM]
CNc1cc2ccn(-c3ccc(NC(=O)NS(=O)(=O)c4ccc(Cl)s4)c(OCCN(C)C)c3)c(=O)c2cc1F [Example 93, 5-chloro-N-[({2-[2-(dimethylamino)ethoxy]-4-[7-fluoro-6-(methylamino)-1-oxoisoquinolin-2(1H)-yl]phenyl}amino)carbonyl]thiophene-2-sulfonamide]	< 10
CNc1cc2ccn(-c3ccc(NC(=O)NS(=O)(=O)c4ccc(Cl)s4)c(C4CC4)c3)c(=O)c2cc1F [Example 94, 5-chloro-N-[({2-cyclopropyl-4-[7-fluoro-6-(methylamino)-1-oxoisoquinolin-2(1H)-yl]phenyl}amino)carbonyl]thiophene-2-sulfonamide]	< 10
CNc1cc2ccn(-c3ccc(NC(=O)NS(=O)(=O)c4ccc(Cl)s4)cc3C(F)(F)F)c(=O)c2cc1F [Example 95, 5-chloro-N-({[4-[7-fluoro-6-(methylamino)-1-oxoisoquinolin-2(1H)-yl]-3-(trifluoromethyl)phenyl]amino}carbonyl)thiophene-2-sulfonamide]	> 30
CNc1cc2ccn(-c3cc(C)c(NC(=O)NS(=O)(=O)c4ccc(Cl)s4)c(C)c3)c(=O)c2cc1F [Example 96, 5-chloro-N-[({4-[7-fluoro-6-(methylamino)-1-oxoisoquinolin-2(1H)-yl]-2,6-dimethylphenyl}amino)carbonyl]thiophene-2-sulfonamide]	< 10
CNc1cc2ccn(-c3ccc(NC(=O)NS(=O)(=O)c4ccc(Cl)s4)c(C(F)(F)F)c3)c(=O)c2cc1F [Example 97, 5-chloro-N-({[4-[7-fluoro-6-(methylamino)-1-oxoisoquinolin-2(1H)-yl]-2-(trifluoromethyl)phenyl]amino}carbonyl)thiophene-2-sulfonamide]	< 10
CNc1cc2ccn(-c3ccc(NC(=O)NS(=O)(=O)c4ccc(Cl)s4)c(C(=O)OC)c3)c(=O)c2cc1F [Example 98, methyl 2-[({[(5-chlorothien-2-yl)sulfonyl]amino}carbonyl)amino]-5-[7-fluoro-6-(methylamino)-1-oxoisoquinolin-2(1H)-yl]benzoate]	< 10
CNc1cc2ccn(-c3ccc(NC(=O)NS(=O)(=O)c4ccc(Cl)s4)c(C(=O)O)c3)c(=O)c2cc1F [Example 99, 2-[({[(5-chlorothien-2-yl)sulfonyl]amino}carbonyl)amino]-5-[7-fluoro-6-(methylamino)-1-oxoisoquinolin-2(1H)-yl]benzoic acid]	< 10
CNc1cc2ccn(-c3cc(C)c(NC(=O)NS(=O)(=O)c4ccc(Cl)s4)c(C(C)C)c3)c(=O)c2cc1F [Example 100, 5-chloro-N-[({4-[7-fluoro-6-(methylamino)-1-oxoisoquinolin-2(1H)-yl]-2-isopropyl-6-methylphenyl}amino)carbonyl]thiophene-2-sulfonamide]	10 to 30
CNc1cc2ccn(-c3cc(C)c(NC(=O)NS(=O)(=O)c4ccc(Cl)s4)c(C(=O)OC)c3)c(=O)c2cc1F [Example 101, methyl 2-[({[(5-chlorothien-2-yl)sulfonyl]amino}carbonyl)amino]-5-[7-fluoro-6-(methylamino)-1-oxoisoquinolin-2(1H)-yl]-3-methylbenzoate]	< 10
CNc1cc2ccn(-c3ccc(NC(=O)NS(=O)(=O)c4ccc(Cl)s4)c(S(C)(=O)=O)c3)c(=O)c2cc1F [Example 102, 5-chloro-N-({[4-[7-fluoro-6-(methylamino)-1-oxoisoquinolin-2(1H)-yl]-2-(methylsulfonyl)phenyl]amino}carbonyl)thiophene-2-sulfonamide]	> 30
CNc1cc2ccn(-c3ccc(NC(=O)NS(=O)(=O)c4ccc(Cl)s4)c(Cl)c3)c(=O)c2cc1F [Example 103, 5-chloro-N-[({2-chloro-4-[7-fluoro-6-(methylamino)-1-oxoisoquinolin-2(1H)-yl]phenyl}amino)carbonyl]thiophene-2-sulfonamide]	< 10
CNc1c(F)cc2c(=O)n(-c3ccc(NC(=O)NS(=O)(=O)c4ccc(Cl)s4)cc3)ccc2c1Br [Example 109, N-[({4-[5-bromo-7-fluoro-6-(methylamino)-1-oxoisoquinolin-2(1H)-yl]phenyl}amino)carbonyl]-5-chlorothiophene-2-sulfonamide]	> 30
CNc1c(F)cc2c(=O)n(-c3ccc(NC(=O)NS(=O)(=O)c4ccc(Cl)s4)cc3)ccc2c1C#N [Example 118, 5-chloro-N-[({4-[5-cyano-7-fluoro-6-(methylamino)-1-oxoisoquinolin-2(1H)-yl]phenyl}amino)carbonyl]thiophene-2-sulfonamide]	10 to 30
CNc1c(F)cc2c(=O)n(-c3ccc(NC(=O)NS(=O)(=O)c4ccc(Cl)s4)cc3)ccc2c1C [Example 120, 5-chloro-N-[({4-[7-fluoro-5-methyl-6-(methylamino)-1-oxoisoquinolin-2(1H)-yl]phenyl}amino)carbonyl]thiophene-2-sulfonamide]	< 10
